Test: Solubility test (visual, complete dissolution at prescribed concentration)
Assay type: physicochemical
Parameters: key: A: completely dissolved; B: partially undissolved
Details: stirred at room temperature for one hour
Protocol: The facial and meridional iridium complex compounds (A) synthesized in Example 1 and the facial iridium complex compounds (B) to (D) synthesized in Examples 2 to 4 were tested for solubility. The test was carried out by mixing the iridium complex compound with chloroform or toluene so that a prescribed concentration was obtained, and visually determining if the iridium complex compound was completely dissolved or partially undissolved after the mixture had been stirred at room temperature for one hour.
Iridium complex compounds Ir(ppy)3 (the following Formula (Y)) and Ir(Fppy)3 (the following Formula (X)) were tested for solubility. The test was carried out by mixing the iridium complex compound with chloroform or toluene so that a prescribed concentration was obtained, and visually determining if the iridium complex compound was completely dissolved or partially undissolved after the mixture had been stirred at room temperature for one hour.

For `CC(C)(C)c1ccnc(-c2[c-]cc(F)cc2F)c1.CC(C)(C)c1ccnc(-c2[c-]cc(F)cc2F)c1.CC(C)(C)c1ccnc(-c2[c-]cc(F)cc2F)c1.[Ir+3]` [Compound (A) meridional complex], the “Solubility at concentration 0.1 wt %” value (chloroform) was “A”, the “Solubility at concentration 0.5 wt %” value (chloroform) was “A” and the “Solubility at concentration 1 wt %” value (chloroform) was “A”. For the same compound, the “Solubility at concentration 0.1 wt %” value (toluene) was “A”, the “Solubility at concentration 0.5 wt %” value (toluene) was “A” and the “Solubility at concentration 1 wt %” value (toluene) was “A”.
For `CCCCCc1ccnc(-c2c(F)cc(F)c[c]2[Ir]([c]2cc(F)cc(F)c2-c2cc(CCCCC)ccn2)[c]2cc(F)cc(F)c2-c2cc(CCCCC)ccn2)c1` [Compound (B) facial complex], the “Solubility at concentration 0.1 wt %” value (chloroform) was “A”, the “Solubility at concentration 0.5 wt %” value (chloroform) was “A” and the “Solubility at concentration 1 wt %” value (chloroform) was “A”. For the same compound, the “Solubility at concentration 0.1 wt %” value (toluene) was “A”, the “Solubility at concentration 0.5 wt %” value (toluene) was “B” and the “Solubility at concentration 1 wt %” value (toluene) was “B”.
In the case of `CCCCC(CCCC)c1ccnc(-c2c(F)cc(F)c[c]2[Ir]([c]2cc(F)cc(F)c2-c2cc(C(CCCC)CCCC)ccn2)[c]2cc(F)cc(F)c2-c2cc(C(CCCC)CCCC)ccn2)c1` [Compound (C) facial complex], the “Solubility at concentration 0.1 wt %” value (chloroform) is reported as “A”, the “Solubility at concentration 0.5 wt %” value (chloroform) is reported as “A” and the “Solubility at concentration 1 wt %” value (chloroform) is reported as “A”. The “Solubility at concentration 0.1 wt %” value (toluene) was “A”, the “Solubility at concentration 0.5 wt %” value (toluene) was “A” and the “Solubility at concentration 1 wt %” value (toluene) was “B”.
For `CCCc1cc(-c2c(F)cc(F)c[c]2[Ir]([c]2cc(F)cc(F)c2-c2cc(CCC)c(CC)cn2)[c]2cc(F)cc(F)c2-c2cc(CCC)c(CC)cn2)ncc1CC` [Compound (D) facial complex], the “Solubility at concentration 0.1 wt %” value (chloroform) was “A”, the “Solubility at concentration 0.5 wt %” value (chloroform) was “A” and the “Solubility at concentration 1 wt %” value (chloroform) was “A”. For the same compound, the “Solubility at concentration 0.1 wt %” value (toluene) was “A”, the “Solubility at concentration 0.5 wt %” value (toluene) was “A” and the “Solubility at concentration 1 wt %” value (toluene) was “A”.

Source: US20090315454A1, “IRIDIUM COMPLEX COMPOUND, ORGANIC ELECTROLUMINESCENT DEVICE OBTAINED BY USING THE SAME, AND USES OF THE DEVICE” (Showa Denko K.K., priority 2006, published 2009)
